{"source": "patent US11766478B2", "about": "“Methods for enhancing antigen-specific immune responses” (priority 2015, dated 2023)", "tested_on": "TC-1 tumors", "assay": "In vivo tumor treatment experiment, TC-1 tumor-bearing mice (tumor volume, survival)", "set-up": "species or system C57BL/6 mice", "settings": "combinatorial treatment with cisplatin; compared to cisplatin alone", "method": "Left panel is representative flow cytometry analysis. […] IgG antibody was used as a control. […] Left panel is representative flow cytometry.\nFor in vivo tumor treatment experiment using only protein, 1×10^5 TC-1 cells were injected subcutaneously into C57BL/6 mice (10 per group). After 3 days, 100 μg of each protein was injected intravenously three times with 3 day intervals. Mice were monitored for tumor growth by palpation and inspection twice a week. For in vivo combined tumor treatment experiments, 1×10^5 TC-1 cells or 5×10^5 CT 26 cells were subcutaneously injected into C57BL/6 mice (10 per group) or BALB/c mice. After 5 days, cisplatin (5 mg/kg) or saline (control) was intraperitoneally injected two times at a 3 day interval. 6 days after tumor challenge, mice received 100 μg of protein each, intravenously injected three times with 3 day intervals.", "data": [{"substance": "AnnexinV: Annexin V protein alone, purified from E. coli, used as control", "values": [{"measurement": "therapeutic anti-tumor effect in TC-1 tumor bearing mice", "result": "did not generate a significantly better therapeutic anti-tumor effect"}]}]}
